Test results reported in patent US20260356824A1, “COMPOUNDS FOR TREATING FIBROTIC DISEASES” (Meta-Immue Inc., priority 2023, published 2026).

What was measured:
[1] = Liver microsomal stability, human; format: in vitro ADME; settings: human liver microsomes; 30 min; percent of parent remaining; read-out: Liver Microsomal stability (%), % of remaining after 30 min, Human
A2058 cells = assay: Chemotaxis Assay (LPA-induced migration of A2058 cells); format: cell-based; settings: Homo sapiens, 4 to 8 hours, crystal violet 590 nm
How it was run: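 A2058 cells, starved 24 hr and treated with test compound or vehicle, were placed on a fibronectin-coated membrane ([…]) above […] in DMEM. After 4–8 h migration, migrated cells were crystal violet stained and read at 590 nm. Values are relative percentage of control.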

[2] = Liver microsomal stability, rat; format: in vitro ADME; settings: rat liver microsomes; 30 min; percent of parent remaining; read-out: Liver Microsomal stability (%), % of remaining after 30 min, Rat
BSEP = biological target: T1, BSEP (Homo sapiens, UniProt O95342); assay: Bile Salt Export Pump (BSEP) Assay, Sf9 insect cell vesicles expressing BSEP; format: in vitro ADME; settings: 10 μM test compound, probe substrate 1 μM [3H]-taurocholic acid, 15 min incubation
T1 construct: ATP-dependent uptake of radiolabelled probe substrate
T1 sequence (O95342 whole entry): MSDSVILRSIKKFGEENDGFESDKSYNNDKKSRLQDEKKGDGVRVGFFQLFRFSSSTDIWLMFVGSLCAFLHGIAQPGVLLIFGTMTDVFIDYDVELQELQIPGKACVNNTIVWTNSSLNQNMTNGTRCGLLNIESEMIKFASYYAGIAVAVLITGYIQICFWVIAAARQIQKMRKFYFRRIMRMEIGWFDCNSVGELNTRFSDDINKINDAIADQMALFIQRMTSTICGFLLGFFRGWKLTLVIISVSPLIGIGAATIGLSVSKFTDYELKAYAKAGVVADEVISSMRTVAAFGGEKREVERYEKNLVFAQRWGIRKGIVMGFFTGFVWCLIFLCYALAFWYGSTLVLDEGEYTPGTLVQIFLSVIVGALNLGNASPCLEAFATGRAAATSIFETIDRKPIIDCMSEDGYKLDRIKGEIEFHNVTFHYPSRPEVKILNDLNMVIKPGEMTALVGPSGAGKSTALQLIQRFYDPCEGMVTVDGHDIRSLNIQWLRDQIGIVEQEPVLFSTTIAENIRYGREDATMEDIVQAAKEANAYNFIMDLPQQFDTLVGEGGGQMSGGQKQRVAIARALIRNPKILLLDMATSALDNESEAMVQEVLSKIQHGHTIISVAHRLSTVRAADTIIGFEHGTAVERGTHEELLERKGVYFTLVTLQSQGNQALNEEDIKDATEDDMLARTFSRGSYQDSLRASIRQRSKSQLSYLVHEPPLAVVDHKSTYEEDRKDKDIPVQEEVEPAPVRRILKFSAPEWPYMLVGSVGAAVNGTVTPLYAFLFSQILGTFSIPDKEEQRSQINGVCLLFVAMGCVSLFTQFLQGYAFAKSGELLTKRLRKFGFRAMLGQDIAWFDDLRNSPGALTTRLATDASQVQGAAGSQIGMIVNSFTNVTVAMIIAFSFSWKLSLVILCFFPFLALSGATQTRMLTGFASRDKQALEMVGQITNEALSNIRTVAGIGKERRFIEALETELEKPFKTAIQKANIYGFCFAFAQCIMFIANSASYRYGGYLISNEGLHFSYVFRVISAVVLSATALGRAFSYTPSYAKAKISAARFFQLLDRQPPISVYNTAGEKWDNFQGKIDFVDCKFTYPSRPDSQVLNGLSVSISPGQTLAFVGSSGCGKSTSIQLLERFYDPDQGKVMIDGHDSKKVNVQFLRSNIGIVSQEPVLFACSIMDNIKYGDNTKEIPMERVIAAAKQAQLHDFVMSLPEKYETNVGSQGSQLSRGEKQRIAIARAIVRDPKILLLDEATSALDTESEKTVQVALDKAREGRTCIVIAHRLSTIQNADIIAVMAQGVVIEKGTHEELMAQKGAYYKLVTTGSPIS
Description: • 1. A stock solution was prepared with the test article (Sponsor compound) in DMSO. • 2. All final assay solutions of probe substrate, reference inhibitor or test article contain 0.5% (v/v) DMSO (vehicle control). • 3. Test article concentrations in transport study were specified in the Summary Table of Experimental Conditions of this protocol.
• 1. Bovine Serum Albumin (BSA) • 2. Dimethyl sulfoxide (DMSO) • 3. BSEP Assay Uptake Buffer (10 mM HEPES-Tris pH 7.4, 0.1 M KNO3, 12.5 mM Mg(NO3)2, 50 mM sucrose) • 4. BSEP Wash Buffer (10 mM Tris-HCl pH 7.4, 0.1 M KNO3, 50 mM sucrose) • 5. BSEP Blocking Buffer (BSEP Wash Buffer+0.5 mg/mL BSA) • 6. 25 mM Mg-ATP solution • 7. 25 mM AMP solution • 8. Corning Costar 96-well flat-bottom, untreated, white Assay Plate (Corning Cat. No. 3912) • 9. Millipore MultiscreenHTs Filtration Plate, glass fiber FB—1.0/0.65 μm (Cat. No. MSFBN6B10 or glass fiber FC—1.2/0.65 μm (Cat. No. MSFCN6B10) • 10. Millipore MultiscreenHTS Vacuum Manifold (Cat. No. MSVMHTS00) • 11. Probe substrates listed in Table 1 • 12. Reference inhibitors listed in Table 1 • 13. Test articles
• 1. Test system: • a. 96-well flat bottom plate containing a suspension of vesicles and a corresponding 96-well glass fiber filtration plate. • b. Transport experiments were conducted in the Assay Uptake Buffer. • c. Transport experiment was initiated with the addition of Mg-ATP or AMP to appropriate wells. • d. Each condition was run in triplicate wells. • 2. Prepared the 96-well flat-bottom assay plate. • a. Incubated the assay plate with the Blocking Buffer for 60 min at 37 °C with orbital shaking at approximately 90 rpm. (NOTE: This is done to prevent non-specific binding of vesicles to polystyrene assay plate). • b. After 60 min, completely removed the Blocking Buffer from the assay plate. • c. The Assay Uptake Buffer solutions were added to the assay plate wells as follows: • i. For probe substrate transport assays, the Assay Uptake Buffer contained vesicles and the probe substrate at the specified concentration. • ii. For the reference inhibition assay, the Assay Uptake Buffer contained vesicles, the reference inhibitor and the probe substrate at the specified concentration in Table 1. • iii. For the test article assays, Assay Uptake Buffer contained vesicles, the test article and the probe substrate at the specified concentration in Table 1. • 3. Incubate at 37 °C with orbital shaking at approximately 90 rpm for the time period specified in Table 1 of this protocol. • 4. Using the 25 mM Mg-ATP or AMP stocks, Mg-ATP or AMP was added to test wells of flat bottom assay plate to a final concentration of 5 mM. • 5. Incubated at 37 °C with orbital shaking at approximately 90 rpm for the incubation time specified in Table 1 of this protocol. • 6. Prepared the 96-well glass fiber filtration plate: • a. Incubated the filtration plate with the Blocking Buffer for 2 min at room temperature with under no vacuum. • b. Turned on vacuum and allowed Blocking Buffer to filter through plate. • c. With vacuum on, filter plate was washed with ice cold Wash Buffer. • 7. At the end of the specified incubation time indicated in […] of this protocol, vesicle transport was quenched by adding ice cold Wash Buffer to samples in 96-well assay plate. • 8. Mixed assay samples (now diluted in Wash Buffer) with pipette and transfered 175 μL into the 96-well glass fiber filtration plate to separate vesicles from buffer by applying vacuum. • 9. Washed filter plate wells with ice cold Wash Buffer. • 10. Allowed filter plate to dry under vacuum. • 11. Transfered filters to scintillation sample plate and added 700 μL of scintillation fluid to the above samples. • 12. Counted the above samples on a 1450 Microbeta (Perkin-Elmer).
• 1. The amount of substrate was quantified with radiometric detection on a 1450 Microbeta (Perkin-Elmer). • 2. For transport study samples run in triplicate, the mean and standard deviation of the replicates were reported. • 3. […]

hLPAR1 = biological target: T2, hLPAR1 (Homo sapiens, UniProt Q92633); assay: Ca2+ Flux Assay (B103 cells stably expressing hLPAR1); format: cell-based; settings: LPA-induced calcium release, Fura-2 AM, compound 20 min at RT
T2 construct: expressed in transfected cells
T2 sequence (Q92633 whole entry): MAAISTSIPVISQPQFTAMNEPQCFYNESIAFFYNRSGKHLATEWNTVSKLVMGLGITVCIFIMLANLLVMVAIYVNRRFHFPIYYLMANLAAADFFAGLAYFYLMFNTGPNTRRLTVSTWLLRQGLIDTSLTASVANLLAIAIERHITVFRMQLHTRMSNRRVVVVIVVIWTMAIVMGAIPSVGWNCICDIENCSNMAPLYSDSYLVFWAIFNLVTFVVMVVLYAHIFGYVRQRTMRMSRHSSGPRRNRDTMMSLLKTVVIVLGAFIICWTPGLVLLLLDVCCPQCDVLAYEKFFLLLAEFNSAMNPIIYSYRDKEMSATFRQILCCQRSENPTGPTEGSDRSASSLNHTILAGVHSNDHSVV
How it was run: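 Fura-2 AM (5 μM) loaded 40 min at RT in HBSS/20 mM HEPES/probenecid/0.3% fatty-acid-free BSA after 2 h serum starvation. Compounds preincubated 20 min at RT, then LPA […] added. Intracellular calcium mobilization read as fluorescence intensity.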

remaining at 0.5 h [1] | IC50 (A2058 cells) | remaining at 0.5 h [2] | IC50 (hLPAR1) | Structure (SMILES) | inhibition at 0.25 h, 10 µM (BSEP)
50 to 75% | 100 to 500 nM | > 75% | < 10 nM | Cc1noc(C2CCN(c3ccc(C4(C(=O)NS(=O)(=O)CCCC(=O)O)CC4)cc3)CC2)c1NC(=O)O[C@H](C)c1ccccc1 [Compound 84] | ≤ 25%
> 75% | < 100 nM | > 75% | 10 to 200 nM | Cc1noc([C@H]2CCN(c3ccc(C4(C(=O)O)CC4)cc3)[C@@H](C)C2)c1NC(=O)O[C@H](C)c1ccccc1 (single isomer, unassigned) [Compound 10] | 25 to 50%
> 75% | < 100 nM | > 75% | < 10 nM | Cc1noc(C2CCN(c3ccc(C4(C(=O)NS(=O)(=O)C(C)(C)C(=O)O)CC4)cc3)CC2)c1NC(=O)O[C@H](C)c1ccccc1 [Compound 67, 2-methyl-2-[[1-[4-[4-[3-methyl-4-[[(1R)-1-phenylethoxy]carbonylamino]isoxazol-5-yl]-1-piperidyl]phenyl]cyclopropanecarbonyl]sulfamoyl]propanoic acid] | 25 to 50%
> 75% | < 100 nM | 50 to 75% | < 10 nM | Cc1noc(C2CCN(c3ccc(C4(C(=O)NS(=O)(=O)CCCO)CC4)cc3)CC2)c1NC(=O)O[C@H](C)c1ccccc1 [Compound 85] | ≤ 25%
> 75% | < 100 nM | > 75% | < 10 nM | Cc1noc(C2CCN(c3ccc(C4(C(=O)NS(=O)(=O)CCC(=O)O)CC4)cc3)CC2)c1NC(=O)O[C@H](C)c1ccccc1 [Compound 83] | ≤ 25%
50 to 75% | < 100 nM | 25 to 50% | < 10 nM | Cc1noc(C2CCN(c3ccc(C4(c5cc(O)no5)CC4)cc3)CC2)c1NC(=O)O[C@H](C)c1ccccc1 [Compound 64] | 75 to 100%
